We go through 13 molecules from US12435061B2 (priority 2020, dated 2025).

SMILES strings stand for the structures. pIC50: −log10 of the molar value. Where “and” joins values, the source holds several entries; their conditions need not be identical. Equal values may be shown once. Read-outs that look alike come from different tables or passages of the source. Where only a bound is given, the exact number is not on record here.

For the test, the target named is hTRPV3 (Homo sapiens (Human), UniProt Q8NET8). The test can be described thus: Whole-cell patch clamp, hTRPV3 Phase 1 / Phase 2 currents. In kind it is cell-based. The conditions noted are these: for pIC50: inward, whole-cell patch clamp. The procedure, abridged: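 Currents are activated by 20 μM 2-APB or by perfusate at 28 °C or warmer, in Ringer's solution, and quantified at ±80 mV.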

The mark [1] stands for this setting: Phase 1 current, read-out: hTRPV3 Patch P1 Inwd.
[2] abbreviates: Phase 1 current, read-out: hTRPV3 (nM) (Phase 1).
The mark [3] stands for this setting: Phase 2 current, read-out: hTRPV3 Patch P2 Inwd.
Where [4] appears, read: Phase 2 current, read-out: hTRPV3 (nM) (Phase 2).

Chain of hTRPV3 (Q8NET8 whole entry): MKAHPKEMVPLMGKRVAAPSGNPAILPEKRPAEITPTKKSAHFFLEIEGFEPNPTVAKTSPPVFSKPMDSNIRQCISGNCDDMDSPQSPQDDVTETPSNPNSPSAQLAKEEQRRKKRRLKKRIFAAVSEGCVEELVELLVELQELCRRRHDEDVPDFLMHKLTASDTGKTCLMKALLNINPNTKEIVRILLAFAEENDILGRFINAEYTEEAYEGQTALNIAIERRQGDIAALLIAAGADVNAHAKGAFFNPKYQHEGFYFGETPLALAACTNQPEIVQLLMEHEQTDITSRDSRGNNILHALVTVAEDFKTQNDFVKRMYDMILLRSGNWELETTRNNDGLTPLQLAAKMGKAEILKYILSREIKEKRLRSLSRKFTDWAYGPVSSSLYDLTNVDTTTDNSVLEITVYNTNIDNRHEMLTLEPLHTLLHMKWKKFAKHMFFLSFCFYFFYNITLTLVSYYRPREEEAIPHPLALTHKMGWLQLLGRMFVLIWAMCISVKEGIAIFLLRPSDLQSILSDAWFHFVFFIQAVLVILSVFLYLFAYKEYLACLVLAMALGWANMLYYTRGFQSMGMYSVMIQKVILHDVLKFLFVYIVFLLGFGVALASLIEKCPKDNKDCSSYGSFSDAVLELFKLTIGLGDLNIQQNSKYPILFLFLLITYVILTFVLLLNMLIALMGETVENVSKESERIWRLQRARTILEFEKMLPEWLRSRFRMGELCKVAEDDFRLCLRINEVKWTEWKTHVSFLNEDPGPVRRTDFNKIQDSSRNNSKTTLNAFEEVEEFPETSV

In the case of `NC(=O)c1cc(-c2ccccn2)ccc1N1CC[C@@H](Oc2ccccn2)C1` [Compound 1-88, (R)-5-(pyridin-2-yl)-2-(3-(pyridin-2-yloxy)pyrrolidin-1-yl)benzamide], the pIC50 was under 6.00 under setting [1] and under 6.00 under setting [3]. For the same molecule, the IC50 is over 3200 nM under setting [2] and over 3200 nM under setting [4].
For `Oc1cc(-c2ccccc2)ccc1N1CC[C@@H](Oc2ccc(C(F)(F)F)cn2)C1` [Compound 1-89, (R)-4-(3-(5-(trifluoromethyl)pyridin-2-yloxy)pyrrolidin-1-yl)biphenyl-3-ol], the pIC50 is, setting by setting: under setting [1], under 6.00; under setting [3], under 6.00. The IC50 runs as follows: under setting [2], over 3200 nM; under setting [4], over 3200 nM.
For the molecule `NC(=O)c1cc(-c2ccccc2)cnc1N1CC[C@@H](Oc2ncccc2Cl)C1` [Compound 1-90, (R)-2-(3-(3-chloropyridin-2-yloxy)pyrrolidin-1-yl)-5-phenylnicotinamide], the pIC50 was under 6.00 under setting [1] and under 6.00 under setting [3]. The IC50 is about 3000 nM under setting [2] and 1600 nM under setting [4].
In the case of `O=C(O)c1cc(-c2ccccc2)cnc1N1CC[C@@H](Oc2ccc(C(F)(F)F)cn2)C1` [Compound 1-91], where the note is “Phase 1 current”, the “hTRPV3 (nM) (Phase 1)” value is “Agonist (Phase 1)”.
For `NC(=O)c1cc(-c2ccccc2)cnc1N1CC[C@@H](Oc2ccc(C(F)(F)F)cn2)C1` [Compound 1-92, (R)-5-phenyl-2-(3-(5-(trifluoromethyl)pyridin-2-yloxy)pyrrolidin-1-yl)nicotinamide], for the setting “Phase 1 current”, the “hTRPV3 (nM) (Phase 1)” value is on record as “Incomplete Block (Phase 1) Incomplete Block (Phase 2)”. For the same molecule, the “hTRPV3 (nM) (Phase 2)” value (Phase 2 current) is reported as “Incomplete Block (Phase 1) Incomplete Block (Phase 2)”.
Consider `Nc1cc(-c2ccccc2)ccc1N1CC[C@@H](Oc2ccc(C(F)(F)F)cn2)C1` [Compound 1-93, (R)-4-(3-(5-(trifluoromethyl)pyridin-2-yloxy)pyrrolidin-1-yl)biphenyl-3-amine], for which the “hTRPV3 (nM) (Phase 2)” value (Phase 2 current) is on record as “Incomplete Block”. Further, the IC50 (hTRPV3 (nM) (Phase 2), Phase 2 current) is 494 nM and < 320 nM.
In the case of `O=C1C(Oc2ccc3ccccc3n2)CCN1c1ccc(-c2ccccc2)cc1` (stereo not shown) [Compound 1-95, 1-(biphenyl-4-yl)-3-(quinolin-2-yloxy)pyrrolidin-2-one], the pIC50 under setting [1] was under 6.00. Besides, the IC50 under setting [2] was over 3200 nM.
Consider `N#Cc1nc(-c2ccccc2)ccc1N1CC[C@@H](Oc2ccc(C(F)(F)F)cn2)C1` [Compound 1-97], for which, under setting [3], the pIC50 was under 6.00. The IC50 under setting [4] worked out at 2930 nM.
For the molecule `NC(=O)c1nc(-c2ccccc2)ccc1N1CC[C@@H](Oc2ccc(C(F)(F)F)cn2)C1` [Compound 1-98, (R)-6-phenyl-3-(3-(5-(trifluoromethyl)pyridin-2-yloxy)pyrrolidin-1-yl)picolinamide], the pIC50 under setting [1] was 6.00 to 7.00. Further, the IC50 under setting [2] was found to be 479 nM.
For `NC(=O)c1cc(-c2ccccc2)ncc1N1CC[C@@H](Oc2ccc(C(F)(F)F)cn2)C1` [Compound 1-99, (R)-2-phenyl-5-(3-(5-(trifluoromethyl)pyridin-2-yloxy)pyrrolidin-1-yl)isonicotinamide], the pIC50 runs as follows: under setting [1], 6.00 to 7.00; under setting [3], 6.00 to 7.00. Besides, the IC50 reads like this: under setting [2], about 787 nM; under setting [4], 349 nM.
With `NC(=O)c1cc(C2=NCCN2)ccc1N1CC[C@@H](Oc2ccc(C(F)(F)F)cn2)C1` [Compound 1-100, (R)-5-(4,5-dihydro-1H-imidazol-2-yl)-2-(3-(5-(trifluoromethyl)pyridin-2-yloxy)pyrrolidin-1-yl)benzamide], the IC50 was over 1000 nM (hTRPV3 Patch P1 Inwd (nM)), over 1000 nM (hTRPV3 Patch P2 Inwd (nM)), over 3200 nM (read-out: hTRPV3 (nM) (Phase 1)) and over 3200 nM (read-out: hTRPV3 (nM) (Phase 2)).
Consider `O=C1C(Oc2ccc3ccccc3n2)CCN1c1cccc2ccccc12` (stereo not shown) [Compound 1-101], for which the pIC50 under setting [1] was under 6.00 and the pIC50 under setting [3] was under 6.00. In addition, the IC50 is, setting by setting: under setting [2], over 1000 nM; under setting [4], over 1000 nM.
Take `N#Cc1ccccc1N1CCC(Oc2ccc3ccccc3n2)C1=O` (stereo not shown) [Compound 1-103, 2-(2-oxo-3-(quinolin-2-yloxy)pyrrolidin-1-yl)benzonitrile]: the pIC50 under setting [1] was under 6.00. Moreover, the IC50 under setting [2] is over 3200 nM.
